How the values were obtained:
DU-145 = assay: Cytotoxic activity in vitro, SRB; format: cell-based, human
Description: (§1) Cytotoxic activity tests in-vitro. A measure of the cytotoxic activity of bis-acridines are the EC50 (concentration of studied compounds at which 50% inhibition of proliferation of tumorous is observed) of the evaluated compounds that inhibit the growth of 50% of cells in relation to a control. The cytotoxic activity of the compounds was determined using SRB, recommended by the US National Cancer Institute (USA). As the spectrum of 13 human origin neoplasms in bis-acridine screening studies, we used the following: HT 29 [CRC], HCT 116 [CRC], H 460 [lung cancer], MDA MB 231 [breast cancer], MCF-7 [breast cancer], UM UC3 [bladder cancer], PC 3 [prostate cancer], DU 145 [ prostate cancer], Panc-1 [pancreatic cancer], Mia Pa Ca 2 [pancreatic cancer], BXPC 3 [pancreatic cancer], AsPC1 [pancreatic cancer], Capan-2 [pancreatic cancer]. […] The DU-145 results were substantially a basis for selecting compounds and neoplasms for screening. The next neoplasms most sensitive to the cytotoxic activity of bis-acridines was the CRC HCT-116, as well as breast cancer MBA-MB-231. […] The cytotoxic activity of the remaining bis-acridines is significant or high (EC50 in the range from 1 to 0.04 μM). […] Panc-1, MiaPaCa-2 and Capan-2 are more sensitive, whereas for AsPC-1 and BxPC-3 this activity is at least an order of magnitude smaller.

HT-29 = assay: Cytotoxic activity in vitro, SRB; format: cell-based, human
Description: as §1

H-460 = assay: Cytotoxic activity in vitro, SRB; format: cell-based, human
Description: as §1

HCT-116 = assay: Cytotoxic activity in vitro, SRB; format: cell-based, human
Description: as §1

UM-UC-3 = assay: Cytotoxic activity in vitro, SRB; format: cell-based, human
Description: as §1

PANC-1 = assay: Cytotoxic activity in vitro, SRB; format: cell-based, human
Description: as §1

MiaPaCa-2 = assay: Cytotoxic activity in vitro, SRB; format: cell-based, human
Description: as §1

MCF-7 = assay: Cytotoxic activity in vitro, SRB; format: cell-based, human
Description: as §1

MDA-MB-231 = assay: Cytotoxic activity in vitro, SRB; format: cell-based, human
Description: as §1

PANC 1 = assay: Anti-neoplasmic activity against xenograft in hairless mice; format: in vivo; details: for TGI [%] [100 − (ΔVT/ΔVC × 100]: series 30, i.v., day 52
Description: For this, we selected 26 bis-acridines, mainly on the basis of the cytotoxic activity. We performed 34 series of experiments evaluating the anti-neoplasmic activity on xenografts in hairless mice against eleven neoplasms of human origin from the determination of the cytotoxic activity of bis-acridines (table 4). The tumours were injected subcutaneously to hairless mice of 5-weeks, female Crl:Nu-Foxnlnu, at a rate of 5×10^6 cells per mouse. After attaining a tumour of about 100 mm^3 or 200 mm^3 in depending on the neoplasm and its take this was 8 or even 30 days, and began therapy. On the day therapy was initiated, we randomised the animals and divided them into groups. Test groups were from 6 to 8 animals, and controls had from 8 to 14 animals. Each compound was tested at three differentiated doses.
The preparations were administered intravenously (i.v.) twice weekly for 4 weeks (thrice weekly for rapidly growing neoplasms). In several series, we used intraperitoneally (i.p.) administration in the same scheme. […] The therapeutic efficacy of the tested formulations was evaluated by measuring tumour size (length and width measurements of the tumour on the basis of the calculated tumour volume). Tumours were measured twice weekly for a period of about 30 days for fast-growing neoplasms, as well as about 60 days for the slow-growing neoplasms. The tumour volume in the treated groups compared with the control group. On this basis, inhibition of tumour growth was calculated using the following formula: Tumour growth inhibition TGI [%]=100−(ΔVT/ΔVC×100) Where ΔVT—is mean the tumour volume in animals in the group treated at the given day of treatment, minus the mean tumour volume in animals at the date of commencement of therapy. ΔVC is mean tumour volume in animals in the control group on a given day of treatment minus the average tumour volume of animals on the date of commencement of therapy. The results of the tests of anti-neoplasmic activity conducted in xenografts of human-origin neoplasms in mice are shown in Table 5.
The result above was accepted only in the case that the dose administered in all animals or more than half of the animals that survived to the end of the experiment. In addition, the evaluation was the day that the administration of the preparation was already completed: for the fast-growing neoplasms (eg. HCT116) this was in the days from 15 to 26, while for slow-growing neoplasms (eg. Panc 1) on a day from 34 to 60. […] In addition, the maximum inhibition of neoplasms could be identified in the day, in which there were no factors that could change the value TGI value.
Such factors may include: a significant decrease in body weight, the appearance of observable toxaemia, excessive rate of tumour growth: tumours in excess of 2000 mm^3 and all animals alive on that day.

With `Cc1ccc([N+](=O)[O-])c2c(NCCNCCNc3ccc(C)c4[nH]c5ccccc5c(=O)c34)c3ccccc3nc12` [C-2016, 9-{N-[(4-methyl-9(10H)-acridono-1-yl)aminoethyl]ethylamino}-4′-methyl-1′-nitroacridine] the EC50 (DU-145) was 599 nM and the EC50 (HT-29) was 413 nM.
Molecule `Cc1ccc([N+](=O)[O-])c2c(NCCCN(C)CCCNc3ccc([N+](=O)[O-])c4[nH]c5ccc(O)cc5c(=O)c34)c3ccccc3nc12` [C-2019, 9-{N-[(7-hydroxy-4-nitro-9(10H)acridono-1-yl)aminopropyl]-N-methylaminopropylamino}-4′-methyl-1′-nitroacridine] has an EC50 (DU-145) of 73 nM, an EC50 (HT-29) of 200 nM and an EC50 (H-460) of 46 nM.
`Cc1ccc([N+](=O)[O-])c2c(NCCCN3CCN(CCCNc4ccc([N+](=O)[O-])c5[nH]c6ccc(O)cc6c(=O)c45)CC3)c3ccccc3nc12` [C-2020] gave an EC50 (DU-145) of 61 nM, an EC50 (HT-29) of 233 nM and an EC50 (H-460) of 47 nM.
Molecule `Cc1ccc([N+](=O)[O-])c2c(NCCCNCCCNc3ccc([N+](=O)[O-])c4[nH]c5ccc(O)cc5c(=O)c34)c3ccccc3nc12` [C-2021, 9-{N-[(7-hydroxy-4-nitro-9(10H)acridono-1-yl)aminopropyl]-aminopropylamino}-4′-methyl-1′-nitroacridine] has an EC50 (DU-145) of 78 nM, an EC50 (HT-29) of 129 nM and an EC50 (HCT-116) of 88 nM. For the same molecule, the EC50 (H-460) was 73 nM.
Work on `Cc1ccc([N+](=O)[O-])c2c(NCCCN(C)CCCNc3ccc(C)c4[nH]c5ccccc5c(=O)c34)c3ccccc3nc12` [C-2023, 9-{N-[(4-methyl-9(10H)-acridono-1-yl)aminopropyl]-N-methylaminopropylamino}-4′-methyl-1′-nitroacridine] yielded an EC50 (DU-145) of 190 nM, an EC50 (HT-29) of 123 nM and an EC50 (HCT-116) of 120 nM. For the same molecule, the EC50 (H-460) was 71 nM.
In the case of `Cc1ccc([N+](=O)[O-])c2c(NCCNCCNCCNc3ccc(C)c4[nH]c5ccccc5c(=O)c34)c3ccccc3nc12` [C-2024, 9-[N-(4-methyl-9(10H)acridono-1-yl)-aminoethylaminoethylamino-ethylamino]-4′-methyl-1′-nitroacridine], the EC50 (DU-145) is reported as 417 nM, the EC50 (HT-29) is reported as 1180 nM and the EC50 (HCT-116) is reported as 1270 nM. The EC50 (H-460) was 370 nM.
With `Cc1ccc([N+](=O)[O-])c2c(NCCNCCNCCNc3ccc([N+](=O)[O-])c4[nH]c5ccccc5c(=O)c34)c3ccccc3nc12` [C-2032, 9-[N-(4-nitro-9(10H)acridono-1-yl)-aminoethylaminoethylamino-ethylamino]-4′-methyl-1′-nitroacridine] the EC50 (UM-UC-3) was 730 nM, the EC50 (DU-145) was 1690 nM and the EC50 (HCT-116) was 850 nM. For the same molecule, the EC50 (PANC-1) was 1310 nM.
With `Cc1ccc(NCCCNCCCNc2c3ccccc3nc3cccc([N+](=O)[O-])c23)c2c(=O)c3ccccc3[nH]c12` [C-2038, 9-{N-[(4-methyl-9(10H)-acridono-1-yl)aminopropyl]propylamino}-1′-nitroacridine] the EC50 (MiaPaCa-2) was 280 nM, the EC50 (MCF-7) was 228 nM and the EC50 (DU-145) was 184 nM. It also gave an EC50 (PANC-1) of 377 nM.
With `Cc1ccc([N+](=O)[O-])c2c(NCCCNCCNCCCNc3ccc([N+](=O)[O-])c4[nH]c5ccccc5c(=O)c34)c3ccccc3nc12` [C-2039, 9-[N-(4-nitro-9(10H)acridono-1-yl)-aminopropylaminoethylamino-propylamino]-4′-methyl-1′-nitroacridine] the EC50 (MiaPaCa-2) was 110 nM, the EC50 (DU-145) was 88 nM and the EC50 (PANC-1) was 142 nM.
`O=c1c2ccccc2[nH]c2c([N+](=O)[O-])ccc(NCCCNCCNCCCNc3c4ccccc4nc4cccc([N+](=O)[O-])c34)c12` [C-2040, 9-[N-(4-nitro-9(10H)acridono-1-yl)-aminopropylaminoethylamino-propylamino]-1′-nitroacridine] gave an EC50 (MiaPaCa-2) of 46 nM, an EC50 (DU-145) of 55 nM and an EC50 (PANC-1) of 60 nM.
`O=c1c2cc(O)ccc2n2nnc3ccc(NCCCN4CCN(CCCNc5c6ccccc6nc6cccc([N+](=O)[O-])c56)CC4)c1c32` [C-2047, 1-[3-(8-hydroxy-6H-[1,2,3]triazolo[4,5,1-de]-acridin-6-on-5-yl)aminopropyl]-4-[3′-(1′-nitroacridin-1-yl)-aminopropyl]piperazine] was tested, and the EC50 (DU-145) was 17 nM, the EC50 (HT-29) was 29 nM and the EC50 (HCT-116) was 17 nM. The EC50 (H-460) was 36 nM.
With `O=c1c2ccccc2n2nnc3ccc(NCCCN4CCN(CCCNc5c6ccccc6nc6cccc([N+](=O)[O-])c56)CC4)c1c32` [C-2048, 1-[3-(6H-[1,2,3]triazolo[4,5,1-de]-acridin-6-on-5-yl)aminopropyl]-4-[3′-(1′-nitroacridin-1-yl)-aminopropyl]piperazine] the EC50 (MCF-7) was 103 nM, the EC50 (UM-UC-3) was 120 nM and the EC50 (DU-145) was 22 nM. The EC50 (HT-29) was 152 nM, the EC50 (MDA-MB-231) was 33 nM and the EC50 (HCT-116) was 41 nM. For the same molecule, the “TGI [%] [100 − (ΔVT/ΔVC × 100]” value (PANC 1; single 4 mg/kg, total 24 mg/kg) was 86%.
For `CN(CCCNc1c2ccccc2nc2cccc([N+](=O)[O-])c12)CCCNc1ccc2nnn3c4ccc(O)cc4c(=O)c1c23` [C-2052, 9-{N-[(8-hydroxy-6H-[1,2,3]triazolo[4,5,1-de]-acridin-6-on-5-yl)aminopropyl]-N-methylaminopropylamino}-1′-nitroacridine], the EC50 (MCF-7) was 220 nM, the EC50 (UM-UC-3) was 155 nM and the EC50 (DU-145) was 28 nM. For the same molecule, the EC50 (H-460) was 74 nM, the “activity against Panc-1 pancreatic cancer” value (PANC 1; in words, scale of b125: TGI≥80% as high activity) was “high level of activity” and the “TGI [%] [100 − (ΔVT/ΔVC × 100]” value (PANC 1; single 1 mg/kg, total 8 mg/kg) was 39%.
`Cc1ccc([N+](=O)[O-])c2c(NCCCN(C)CCCNc3ccc4nnn5c6ccc(O)cc6c(=O)c3c45)c3ccccc3nc12` [C-2056, 9-{N-5-[(8-hydroxy-6H-[1,2,3]triazolo[4,5,1-de]-acridin-6-on-5-yl)aminopropyl]-N-methylaminopropylamino}-4′-methyl-1′-nitroacridine] was tested, and the EC50 (DU-145) was 38 nM.
`Cc1ccc([N+](=O)[O-])c2c(NCCCN3CCN(CCCNc4ccc5nnn6c7ccc(O)cc7c(=O)c4c56)CC3)c3ccccc3nc12` [C-2057, 1-[3-(8-hydroxy-6H-[1,2,3]triazolo[4,5,1-de]-acridin-6-on-5-yl)aminopropyl]-4-[3′-(4′-methyl-1′-nitroacridin-1-yl)-aminopropyl]piperazine] gave an EC50 (DU-145) of 34 nM.
With `Cc1ccc([N+](=O)[O-])c2c(NCCCN3CCN(CCCNc4ccc5nnn6c7ccccc7c(=O)c4c56)CC3)c3ccccc3nc12` [C-2058] the EC50 (DU-145) was 42 nM.
`CN(CCCNc1c2ccccc2nc2cccc([N+](=O)[O-])c12)CCCNc1ccc2nnn3c4ccccc4c(=O)c1c23` [C-2060, 9-{N-5-[(6H-[1,2,3]triazolo[4,5,1-de]-acridin-6-on-5-yl)aminopropyl]-N-methylaminopropylamino}-1′-nitroacridine] gave an EC50 (DU-145) of 150 nM and an EC50 (H-460) of 185 nM.
With `O=c1c2ccccc2n2nnc3ccc(NCCCNCCCNc4c5ccccc5nc5cccc([N+](=O)[O-])c45)c1c32` [C-2063, 9-{N-5-[(6H-[1,2,3]triazolo[4,5,1-de]-acridin-6-on-5-yl)aminopropyl]-aminopropylamino}-1′-nitroacridine] the EC50 (DU-145) was 4.6 nM and the EC50 (H-460) was 24 nM.
